In ChEMBL document CHEMBL2380198, “SAR and evaluation of novel 5H-benzo[c][1,8]naphthyridin-6-one analogs as Aurora kinase inhibitors” (Bioorg Med Chem Lett, 2013):

What follows are compounds tested against Aurora kinase B (Homo sapiens, UniProt Q96GD4) (assay: Inhibition of aurora-B (unknown origin)).
Aurora kinase B, sequence (Q96GD4 whole entry): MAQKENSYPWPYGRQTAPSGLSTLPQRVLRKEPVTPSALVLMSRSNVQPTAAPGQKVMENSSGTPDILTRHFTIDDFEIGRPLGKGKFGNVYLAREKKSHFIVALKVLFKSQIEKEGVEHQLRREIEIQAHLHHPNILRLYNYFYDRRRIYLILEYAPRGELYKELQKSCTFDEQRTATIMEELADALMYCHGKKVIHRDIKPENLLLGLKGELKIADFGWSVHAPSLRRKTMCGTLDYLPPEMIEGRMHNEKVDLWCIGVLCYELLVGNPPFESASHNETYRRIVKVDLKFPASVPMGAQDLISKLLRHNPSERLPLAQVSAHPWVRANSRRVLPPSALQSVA

SMILES	IC50 [nM]
O=C(Nc1ccc(Nc2ccnc3[nH]c(=O)c4ccccc4c23)cn1)c1ccccc1	13
COc1ccccc1C(=O)Nc1ccc(Nc2ccnc3[nH]c(=O)c4ccccc4c23)cc1	2
O=C(Nc1ccc(Nc2ccnc3[nH]c(=O)c4ccccc4c23)cc1)c1cccc(F)c1	1
O=C(Nc1ccc(Nc2ccnc3[nH]c(=O)c4ccccc4c23)cc1)c1ccccc1C(F)(F)F	1

More lines, now with the values ahead:

IC50 [nM]	SMILES
174	Nc1ccc(Nc2ccnc3[nH]c(=O)c4ccccc4c23)cc1
2	Cc1ccc(C(=O)Nc2ccc(Nc3ccnc4[nH]c(=O)c5ccccc5c34)cc2)cc1
1	O=C(Nc1ccc(Nc2ccnc3[nH]c(=O)c4ccccc4c23)cc1)c1ccc(F)cc1

What follows are compounds tested on MIA PaCa-2 (assay: Antiproliferative activity against human MIAPaCa2 cells).
Type: functional, cell-based

SMILES	IC50 [nM]
COc1ccccc1C(=O)Nc1ccc(Nc2ccnc3[nH]c(=O)c4ccccc4c23)cc1	2220
O=C(Nc1ccc(Nc2ccnc3[nH]c(=O)c4ccccc4c23)cc1)c1cccc(F)c1	919
O=C(Nc1ccc(Nc2ccnc3[nH]c(=O)c4ccccc4c23)cc1)c1ccccc1C(F)(F)F	405

Other lines, results leading:

IC50 [nM]	SMILES
2390	Cc1ccc(C(=O)Nc2ccc(Nc3ccnc4[nH]c(=O)c5ccccc5c34)cc2)cc1
719	O=C(Nc1ccc(Nc2ccnc3[nH]c(=O)c4ccccc4c23)cc1)c1ccc(F)cc1

The compounds below were run against T1, Aurora kinase A (Homo sapiens, UniProt O14965) (assay: Inhibition of aurora-A (unknown origin)).
T1 sequence (O14965 whole entry): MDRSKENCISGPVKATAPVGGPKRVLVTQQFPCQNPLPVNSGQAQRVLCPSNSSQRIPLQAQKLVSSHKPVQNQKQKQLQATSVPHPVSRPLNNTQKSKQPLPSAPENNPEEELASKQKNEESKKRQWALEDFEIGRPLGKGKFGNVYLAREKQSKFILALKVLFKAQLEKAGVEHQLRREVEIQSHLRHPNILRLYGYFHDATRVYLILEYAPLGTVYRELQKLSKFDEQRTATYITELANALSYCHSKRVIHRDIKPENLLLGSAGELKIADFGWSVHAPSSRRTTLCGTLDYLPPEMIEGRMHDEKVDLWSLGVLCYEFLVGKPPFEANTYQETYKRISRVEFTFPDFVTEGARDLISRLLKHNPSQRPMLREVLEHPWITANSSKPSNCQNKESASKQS

SMILES	IC50 [nM]
O=C(Nc1ccc(Nc2ccnc3[nH]c(=O)c4ccccc4c23)cn1)c1ccccc1	70
COc1ccccc1C(=O)Nc1ccc(Nc2ccnc3[nH]c(=O)c4ccccc4c23)cc1	7
O=C(Nc1ccc(Nc2ccnc3[nH]c(=O)c4ccccc4c23)cc1)c1cccc(F)c1	7
O=C(Nc1ccc(Nc2ccnc3[nH]c(=O)c4ccccc4c23)cc1)c1ccccc1C(F)(F)F	4

Continued, values first:

IC50 [nM]	SMILES
1150	Nc1ccc(Nc2ccnc3[nH]c(=O)c4ccccc4c23)cc1
3	Cc1ccc(C(=O)Nc2ccc(Nc3ccnc4[nH]c(=O)c5ccccc5c34)cc2)cc1
4	O=C(Nc1ccc(Nc2ccnc3[nH]c(=O)c4ccccc4c23)cc1)c1ccc(F)cc1
